Tests used:
[1] = tested on: HeLa cell lysates; assay: KAYAK in vitro kinase assay, lysates of asynchronous, G1/S- or G2/M-arrested HeLa cells; type: biochemical, human; conditions: for G1/S: changed phosphorylation: G1/S phase compared to asynchronously growing HeLa cells; for G2/M: changed phosphorylation: G2/M phase compared to asynchronously growing HeLa cells
Procedure: For cell cycle examples, HeLa cells were synchronized by double thymidine block for G1/S-arrest and by 0.2 μg/ml nocodazole for G2/M-arrest as described (Dephoure et al. 2008 Proc Natl Acad Sci USA 105: 10762-10767). Synchronization was confirmed by flow cytometry.
(§1) For cell lysis, the media were removed, and cells were washed with ice-cold phosphate-buffered saline (PBS) and lysed with ice-cold lysis buffer (10 mM K2HPO4 pH 7.5, 1 mM EDTA, 10 mM MgCl2, 50 mM β-glycerophosphate, 5 mM EGTA, 0.5% Nonidet P-40, 0.1% Brij 35, 0.1% deoxycholic acid, 1mM sodium orthovanadate, 1mM phenylmethyl-sulfonyl fluoride, 5 μg/ml leupeptin and 5 μg/ml pepstatin A). Lysates were centrifuged at 10,000 rpm for 10 min to remove cell debris, and clear supernatant was used for immunoblotting and in vitro kinase assays. Protein concentration was determined by Bradford assay (Biorad, Hercules, Calif.).
(§2) Peptides were synthesized, purified and quantified as described in Yu et al. 2009 Proc Natl Acad Sci USA 106: 11606-11611, hereby incorporated by reference herein in its entirety. Each substrate peptide (250 pmol) was mixed to a final concentration of 5 μM in the 50 μL reaction mixture. Alternatively, reactions were performed using 6 μg cell lysate aliquotes mixed to a final volume of 20 μl. Cell lysate or other kinase source was added to the substrate mixture in 25 mM Tris-Cl, pH 7.5, containing 5 mM ATP, 7.5 mM MgCl2, 0.2 mM EGTA, 7.5 mM β-glycerophosphate, 0.1 mM Na3VO4, and 0.1 mM DTT. The reaction was incubated at 25° C. for 60 min and then terminated by the addition of 100 μl of 1% trifluoroacetic acid (TFA) containing a known amount of an internal standard (typically 20 pmol). Alternatively, the reaction was incubated at 20° C. for 45 min before termination with TFA.
(§3) Forty-five individual in vitro kinase reaction mixtures were combined and desalted by using Sep-Pak C18 cartridge (Waters, Milford, Mass.). Phosphopeptides were enriched by immobilized metal ion chromatography (IMAC) with 20 μl of beads (Phos-Select iron affinity gel; Sigma, St. Louis, Mo.) and subsequently desalted by using Empore C18 solid phase extraction disks (3M, St. Paul, Minn.) as described previously.
(§4) Quantitation of the target peptide-internal standard ratios was performed by first constructing the extracted ion chromatogram for the most abundant charge state for each peptide using a ±10 ppm window. Chromatograms were integrated using Qual/Quan browser (Xcalibur 2.0.5, Thermo Fisher, San Jose, Calif.). Since the phosphorylated peptides generated from the in vitro kinase reactions were chemically identical to the internal standards, they were assumed to have the same ionization efficiency. Therefore, the amount of each phosphorylated peptide was calculated by direct ratio to the internal standard level.
(§5) To test substrate suitability in a multiplexed assay, the phosphorylation activities were measured using […] of each substrate peptide, 6 μg lysate, and 5 mM ATP in a plate format. Reactions proceeded for 60 minutes followed by acidification and the addition of isotope-labeled reference peptides. After pooling 45 samples, phosphopeptide enrichment was followed by liquid-chromatography (LC) separation and on-line peptide detection by high-resolution mass spectrometry.
In order to examine target peptides with cell-cycle-dependent phosphorylation, kinase activities in asynchronously growing HeLa cells were profiled and the profiles were compared with those of cells synchronized in G1/S and G2/M phase using a double-thymidine block and nocodazole arrest, respectively (FIG. 3B).

[2] = tested on: HEK293 cell lysates; assay: KAYAK in vitro kinase assay, individual reactions, lysates of starved, insulin- or EGF-stimulated HEK293 cells; type: biochemical, human; conditions: for E: changed phosphorylation in EGF stimulated condition: EGF-stimulated compared to starved HEK293 cells
Procedure: For stimulation of HEK293 cells or HeLa lines, cells were treated with insulin (100 nM; 10-30 min) EGF (50 ng/ml; 10 min) or phorbol 12-myristate 13-acetate (PMA; 50 or 100 ng/ml; 10 -30 min) at 37° C. for the indicated times after overnight serum-starvation.
as §1, §2, §3, §4, §5
The ability of the peptides to report specific changes in kinase activation after pathway stimulation was examined herein. Lysates from HEK293 cells were collected after insulin or EGF treatment and were compared to their activities in the serum-starved state using the KAYAK approach. Western blot analysis of lysates from cells in which the PI3K and MAPK pathways were activated, as indicated by elevated phospho-Akt and phospho-ERK1/2 levels, respectively, is shown in FIG. 1D. […]

[3] = target: T1, recombinant RSK1 (Homo sapiens, UniProt Q15418); assay: In vitro peptide phosphorylation by purified RSK; type: biochemical
T1 construct: 90 kDa ribosomal S6 kinases 1 (RSK1, 1-735); purchased Cell Signaling Technology (Danvers, Mass.)
T1 sequence (Q15418 whole entry): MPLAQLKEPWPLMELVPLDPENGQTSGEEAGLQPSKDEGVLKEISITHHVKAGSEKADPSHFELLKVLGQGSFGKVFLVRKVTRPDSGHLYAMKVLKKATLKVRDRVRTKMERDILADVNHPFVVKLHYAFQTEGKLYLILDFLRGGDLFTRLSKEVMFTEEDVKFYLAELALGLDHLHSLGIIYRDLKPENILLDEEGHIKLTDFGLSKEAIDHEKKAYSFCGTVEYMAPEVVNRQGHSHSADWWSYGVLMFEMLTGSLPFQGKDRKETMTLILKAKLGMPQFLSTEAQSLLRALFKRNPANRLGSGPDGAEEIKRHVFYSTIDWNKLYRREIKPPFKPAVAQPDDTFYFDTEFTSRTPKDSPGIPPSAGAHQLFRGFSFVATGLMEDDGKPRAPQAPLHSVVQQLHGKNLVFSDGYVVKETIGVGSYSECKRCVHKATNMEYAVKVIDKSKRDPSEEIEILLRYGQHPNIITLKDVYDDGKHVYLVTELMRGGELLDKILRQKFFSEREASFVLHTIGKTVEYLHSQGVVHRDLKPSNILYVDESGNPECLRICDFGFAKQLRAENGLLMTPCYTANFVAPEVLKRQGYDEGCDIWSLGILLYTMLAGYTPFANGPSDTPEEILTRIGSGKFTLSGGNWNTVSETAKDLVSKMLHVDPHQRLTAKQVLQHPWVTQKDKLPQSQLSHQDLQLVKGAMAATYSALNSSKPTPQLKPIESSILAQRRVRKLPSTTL
Description: Reaction mixture was supplemented with 0.1% BSA. Other conditions were the same as in FIG. 10A.
Purified human active kinases of Akt1 (full length), extracellular signal-regulated kinase 1 (ERK1, 1-379), mitogen-activated protein kinase kinase 1 (MEK1, 1-393), 90 kDa ribosomal S6 kinases 1 (RSK1, 1-735), cAMP-dependent protein kinase (PKA) catalytic subunit-α (PKA Cα, 1-351), protein kinase Cα (PKCα, full length), epidermal growth factor (EGF) receptor (EGFR, 672-1210), platelet-derived growth factor (PDGF) receptor α (PDGFRα, 550-1090), vascular endothelial growth factor (VEGF) receptor 1 (VEGFR1 784-1338), Src (full length), casein kinase 2 (CK2, full length), Aurora A (1-403), AMP-activated protein kinase α1β1γ1 (AMPK α1β1γ1, full length), glycogen synthase kinase-3α (GSK-3α, 1-483) and MAP/microtubule affinity-regulating kinase 1 (MARK 1, full length) were obtained from Cell Signaling Technology (Danvers, Mass.). Cdc2/cyclin B1 (full length) and insulin-like growth factor (IGF)-I receptor (IGFIR, 959-1367) were obtained from Upstate (Temecula, Calif.).
as §2, with “Each substrate peptide (250 pmol) was mixed to a final concentration of 5 μM in the 50 μL reaction mixture.” left out
It was observed that basal phosphorylation of these peptides was not affected by knockdown and likely was the result of remaining RSK isoforms or other basophilic kinases (FIG. 5C).

[4] = tested on: PI3K and MAPK pathways; assay: KAYAK profiling of cancer cell lines with or without gefitinib: PI3K and MAPK activity; type: cell-based, human
Procedure: MCF7 and MBA-MB231 cells were maintained in DMEM supplemented with 10% FBS. Sum159 cells were maintained in Ham's F12 media supplemented with 5% FBS, 5μg/ml hydrocortisone. MCF10A, MCF10A, ErbB2, MCF10A/IGFR, and MCF10A/H-Ras^G12V cells were generously provided by J. Brugge (Debnath et al. 2002 Cell 111: 29-40; Irie et al. 2005 J Cell Biol 171: 1023-1034; Reginato et al. 2003 Nat Cell Biol 5: 733-740) and were maintained in 50/50 DMEM/F12 media supplemented with 5% horse serum, 20 ng/ml EGF, 100 ng/ml cholera toxin, 10 μg/ml insulin, and 500 ng/ml hydrocortisone. Breast cancer cells were treated also with 1 μM of gefitinib (LC laboratories) for 24 h before lysis and KAYAK analysis. The mutation data was obtained from Wellcome Trust Sanger Institute Cancer Genome Project Web site (Hollestele et al. 2007 Mol Cancer Res 5:195-201).
as §2
In tumors, activating mutations are often found in core signaling pathways (McLendon et al. 2008 Nature 455: 1061-1068). […]. The cell lines were chosen to represent the highly heterogeneous nature of breast cancer.

Compound | G1/S: changed phosphorylation [1] | G2/M: changed phosphorylation [1] | E: changed phosphorylation in EGF stimulated condition [2] | other results
VKRQSSTPSAPFR (The sequence was designed and synthesized) [B7] | −− (A change of more than +4 and −4 fold is indicated by “++” and “−−”, respectively.) | −− (A change of more than +4 and −4 fold is indicated by “++” and “−−”, respectively.) | – | –
SKRRNSEFEIPFR (The sequence was designed and synthesized) [G5] | – | – | + (A change of more +2 fold and −2 fold is indicated by “+” and “−”, respectively.) | phosphorylation by recombinant RSK1 in vitro [3]: robustly phosphorylate
LKLSPSPSSRPFR (The sequence was designed and synthesized) [B11] | + (A change of more +2 fold and −2 fold is indicated by “+” and “−”, respectively.) | ++ (A change of more than +4 and −4 fold is indicated by “++” and “−−”, respectively.) | – | –
KKKRFSFKKSPFR (The sequence was designed and synthesized) [G10] | – | – | – | conversion of the substrate ([2]; serum-starved HEK293 lysate, 100 μM peptide, 6 μg lysate, 60 min, highest activity peptide): 18%
PSTNSSPVLKPFR (The sequence was designed and synthesized) [A12] | – | + (A change of more +2 fold and −2 fold is indicated by “+” and “−”, respectively.) | – | –
NLLPLSPEEFPFR (The sequence was designed and synthesized) [D7] | −− (A change of more than +4 and −4 fold is indicated by “++” and “−−”, respectively.) | −− (A change of more than +4 and −4 fold is indicated by “++” and “−−”, respectively.) | – | –
NQDPVSPSLVPFR (The sequence was designed and synthesized) [B5] | −− (A change of more than +4 and −4 fold is indicated by “++” and “−−”, respectively.) | − (A change of more +2 fold and −2 fold is indicated by “+” and “−”, respectively.) | – | –
FKNIVTPRTPPFR (The sequence was designed and synthesized) [D10] | – | ++ (A change of more than +4 and −4 fold is indicated by “++” and “−−”, respectively.) | – | –
IPTGTTPQRKPFR (The sequence was designed and synthesized) [C2] | – | ++ (A change of more than +4 and −4 fold is indicated by “++” and “−−”, respectively.) | – | increase in phosphorylation in G2/M ([1]; G2/M (nocodazole-arrested) HeLa lysate vs asynchronously growing cells): 19 fold
COc1cc2ncnc(Nc3ccc(F)c(Cl)c3)c2cc1OCCCN1CCOCC1 [gefitinib] | – | – | – | activation of MAPK after treatment ([4]; HeLa cells, 1 μM): not to be affected; activity in PI3K and MAPK pathway after treatment ([4]; MCF7, 1 μM, 24 h): decreased activity; MAPK activity after treatment ([4]; MCF10A cells overexpressing RasV12, 1 μM, 24 h): gefitinib-resistance; PI3K and MAPK activity after treatment ([4]; MCF10A/ErbB2, 1 μM, 24 h): strongly inhibited; PI3K and MAPK activity after treatment ([4]; MCF10A/IGFR, 1 μM, 24 h): strongly inhibited; MAPK activity after treatment ([4]; MDA-MB231 cells, 1 μM, 24 h): completely refractory; MAPK activity after treatment ([4]; Sum159 cells, 1 μM, 24 h): some sensitivity; PI3K and MAPK activity after treatment ([4]; normal MCF10A cells, 1 μM, 24 h): strongly inhibited
PKRKVSSAEGPFR (The sequence was designed and synthesized) [B6] | – | − (A change of more +2 fold and −2 fold is indicated by “+” and “−”, respectively.) | + (A change of more +2 fold and −2 fold is indicated by “+” and “−”, respectively.) | increase in phosphorylation after EGF ([2]; EGF-stimulated vs serum-starved HEK293 lysate): 3 fold; phosphorylation by recombinant RSK1 in vitro [3]: robustly phosphorylate
IPINGSPRTPPFR (The sequence was designed and synthesized) [B4] | – | ++ (A change of more than +4 and −4 fold is indicated by “++” and “−−”, respectively.) | + (A change of more +2 fold and −2 fold is indicated by “+” and “−”, respectively.) | –
NKRRGSVPILPFR (The sequence was designed and synthesized) [C11] | – | – | + (A change of more +2 fold and −2 fold is indicated by “+” and “−”, respectively.) | phosphorylation by recombinant RSK1 in vitro [3]: robustly phosphorylate

Reference: patent US10407712B2, “Methods, compositions and kits for high throughput kinase activity screening using mass spectrometry and stable isotopes” (President and Fellows of Harvard College, priority 2008, dated 2019)
